US9358276B2, “Methods of diagnosing and treating small intestinal bacterial overgrowth (SIBO) and SIBO-related conditions” (Cedars-Sinai Medical Center, priority 1999, dated 2016)
Values joined by “and” are separate entries in the source; they are usually repeats but may differ in a detail not shown here. Identical values can stand only once.

Key:
Format in all cases: in vivo, human
[1] = test system: rapid upper gut transit and diarrhea; test: Continued pre-meal oleate/oleic acid treatment: diarrhea, stool output, symptoms
Excerpt: Continuing oleic acid treatment at home was offered to Aresponders≅ (i.e., patients who experienced a greater than 100% increase in baseline transit time with 3.2 g oleic acid). Of the 36 responders out of the original 45 patients, 18 provided records of stool volume and frequency on- and off-treatment for comparison. The inconvenient and unappealing nature of stool collection and measurement were the primary reasons reported by responders who chose not to participate in stool collection. After completing a set of three preliminary breath hydrogen tests, each participating responder was asked to refrain from taking oleic acid for two days in order to measure off-treatment stool output for a 24-hour period. Patients were issued a stool pattern record form and a stool collection container with graduated volume markings to record the frequency and volume of bowel movements. After two days without oleic acid, each patient took 3.2 g of oleic acid mixed with 25 mL of Ensure emulsion three times a day, 30 minutes before breakfast, lunch and dinner. After taking oleic acid for two days, patients recorded stool output for another 24-hour period. With this oleic acid emulsion treatment, stool frequency decreased from 6.9±0.8 to 5.4±0.9 bowel movements per 24-hour period (p<0.05), and stool volume decreased from 1829.0±368.6 to 1322.5±256.9 per 24-hour period (p<0.05).
The patient was a person with a history of adolescent-onset, persistent diarrhea. […] They presented with complaints of excessive gas, postprandial bloating, diarrhea and urgency, and 3 to 7 liquid bowel movements per day. Their upper gut transit times were (min) 30 (0 g oleic acid), 117 (1.6 g oleic acid) and 101 (3.2 g oleic acid).

[2] = test system: upper gut transit; test: Upper gut transit time by lactulose breath hydrogen test after oleate or oleic acid; conditions: five patients with persistent diarrhea
Excerpt: In a preliminary study, five patients with persistent diarrhea for 3 to 22 months, (one each due to vagal denervation, ileal resection for Crohn's disease, and vagotomy and antrectomy, and two due to idiopathic causes) were studied. […] This test relies on the metabolism of certain carbohydrate materials (e.g. lactulose) by the microbial flora within the caecum. By generating gas which can be detected in the expired air, it is possible to make some estimation about the initial arrival of the administered material within the colon.
Each patient received orally in random order, 0, 1.6 or 3.2 g of sodium oleate in 25 mL Ensure (Ross), followed by 100 mL water. Thirty minutes after each dose of oleate, patients received 10 g lactulose orally, followed by 25 mL water. Breath samples were collected in commercially available breath testing bags (Quintron, Menomonee Falls, Wis.) every 10-15 minutes, and the hydrogen content of the samples was measured using a breath analyzer (Microlyzer Model 12, Quintron Instruments, Menomonee Falls, Wis.), calibrated against gas samples of known hydrogen concentration. With a syringe, a 40-mL sample of the expired breath was withdrawn from the collection bag and analyzed immediately for hydrogen concentration (ppm). The hydrogen concentration value from each sample was plotted against time. Upper gut transit time was defined as the time in minutes from ingestion of lactulose (t0) until a rise of H2 of >10 ppm. Data were further analyzed using 1-way repeated measures analysis of variance (ANOVA)(See Table 4).
The effect of an active lipid on transit time was determined in 8 normal human subjects (1 male and 7 females with a mean age of 35±2.6 years [SE]) and 45 patients (20 males and 25 females with a mean age of 49.1±2.5 [SE], age range from 18 to 90 years) with chronic diarrhea (i.e., continuous diarrhea for more than two months) associated with a wide variety of diagnoses and conditions (e.g., Crohn's disease; irritable bowel syndrome; short bowel syndrome; Indiana pouch; AIDS; ulcerative colitis; vagotomy; antrectomy; ileostomy; partial and complete colectomy; colon cancer; diabetes mellitus type 1; pancreatic insufficiency; radiation enteropathy; esophagectomy/gastric pull-up; total and subtotal gastrectomy; gastrojejunostomy), made by referring gastroenterologists. The method was the same as described above, except oleic acid (Penta Manufacturing, Livingston, N.J.) replaced sodium oleate in 50 mL of Ensure emulsion. All subjects refrained from taking antibiotics for at least two weeks before each testing date and during stool measurement periods. Patients were also instructed to refrain from anti-diarrheal drugs, laxatives, somatostatin analogues or anticholinergics for at least 48 hours before each test. In both the normal and patient groups, there was a significant slowing of upper gut transit time in response to oleic acid, as summarized in Table 5 below (p<0.001).

[3] = test system: SIBO; test: Antibiotic treatment of Crohn's disease subjects with SIBO
Description: To correct for selection bias, a pilot study was conducted to determine the incidence of SIBO in subjects who had received a suspected diagnosis of Crohn's disease at Cedars-Sinai Medical Center=s IBD Center within the preceding three months.

[4] = test system: SIBO; test: Case: ADHD with SIBO, neomycin; conditions: one patient
Excerpt: A person was brought in by their parent with a suspected diagnosis of attention deficit/hyperactivity disorder (AD type), made by a pediatrician. Concurrently, they also had significant bloating, gas and some alteration in bowel habits. They had initially been referred for diagnosis by their teachers and school counselors, because they had been having difficulty performing in school for the previous two to three years, after having previously been a very good student. Prior to the detection of SIBO, the subject had been treated with multiple pharmacologic agents for depression, including amitryptiline, with no noticeable improvement in their symptoms.
Additionally, they started to get AA≅ averages in school again after being in the AC≅ range.

[5] = test system: SIBO; test: Comparison of antibiotic regimes for eradicating SIBO, follow-up lactulose breath hydrogen test (LBHT)
Description: Subjects were tested after an overnight fast. […] Each breath sample was then analyzed for hydrogen content with a gas chromatograph (Quintron Model DP, Quintron Instrument Co., Division of E.F. Brewer Co, Menomonee Falls, Wis. 53051), standardized using a QuinGas standard as instructed by the manufacturer. Hydrogen peaks were plotted before and after an antimicrobial treatment regimen for comparison. The normal range for the second hydrogen peak was 0 to 20 ppm. Subjects referred to the Cedars-Sinai GI Motility Program for a lactulose breath hydrogen test (LBHT) to assess SIBO were entered into a database. Those that tested positive for SIBO were given antibiotic treatment by their referring physician and in some cases, returned for a follow-up LBHT to assess eradication of SIBO. During the follow-up LBHT, subjects were asked which antibiotic they were given to treat their SIBO. The eradication rate of each antibiotic was evaluated. Of the 771 subjects in the database, 561 (73%) tested positive for SIBO. […] (See Table 1 below). […] None of the commonly used antibiotics was universally successful in eradicating overgrowth.

[6] = Crohn's subjects, pooled over the named antibiotics

| Compound | diarrhea ([1]; all five patients, prolonged ingestion 15-30 minutes prior to meals) | chronic abdominal pain, post prandial bloating and nausea ([1]; patient with Crohn's disease) | weight gained ([1]; patient with Crohn's disease) [lbs] | postprandial dumping syndrome ([1]; patient with vagotomy and antrectomy) | Transit time (mean ± SE) ([2]; 1.6 g sodium oleate in 25 mL Ensure) [min] | Transit time (mean ± SE) ([2]; 3.2 g sodium oleate in 25 mL Ensure) [min] | improvement in symptoms, breath test negative after antibiotic [3, 6] [%] | improvement in symptoms, subjects remaining positive on breath test after antibiotic [3, 6] [%] | eradication of SIBO (LBHT) ([3]; nine Crohn's patients) | overall improvement in symptoms by VAS ([3]; nine Crohn's patients (n=8 reporting), 10-day course of 500 mg twice/daily) [%] | eradication of SIBO (post-treatment LBHT) ([3]; pilot study, both subjects) | overall improvement in symptoms ([3]; pilot study, two subjects, respectively, 10-day course) | concentration [4] | time to relapse of attention problem and bacterial overgrowth [4] | response to repeat treatment ([4]; repeat 500 mg twice daily for 10 days) | bowel symptoms ([4]; 500 mg twice daily for 10 days) | success in eradicating SIBO, comparison of antibiotics ([5]; 105 subjects with follow-up LBHT) | % Patients with SIBO Eradicated ([5]; follow-up LBHT) [%] |
| --- | --- | --- | --- | --- | --- | --- | --- | --- | --- | --- | --- | --- | --- | --- | --- | --- | --- | --- |
| CCCCCCCC/C=C\CCCCCCCC(=O)[O-].[Na+] [oleate, sodium oleate] | reduced diarrhea | complete resolution | 22 | resolution of postprandial dumping syndrome | 116 ± 11.1 | 140 ± 11.5 |  |  |  |  |  |  |  |  |  |  |  |  |
| neomycin |  |  |  |  |  |  | 69±27 | 20±0 | at least partially eradication of SIBO | 57±32 | completely at least partially eradicated | 60% and 80% | able to concentrate better | Approximately two | improved concentration and resolution of bowel symptoms | resolution of their bowel symptoms | most successful | 55 |
